Data from patent US20100120690A1, “Polypeptides Having Antimicrobial Activity and Polynucleotides Encoding Same” (Novozymes Adenium Biotech A/S, priority 2005, published 2010).

Assays:
Assay type in all cases: cell-based
[1] = test system: panel of 6 different strains of Staphylococcus aureus; test: Average MIC, NCCLS/CLSI guidelines using caMHB (Example 6); settings: average over 6 S. aureus strains, duplicate; MIC above 32 counted as 64; read after 18-24 hours at 37° C.
Method: A large number of antimicrobial peptides of the invention were tested against a panel of 6 different strains of Staphylococcus aureus listed below:
Staphylococcus aureus, ATCC29213, MSSA, NCCLS reference strain; Staphylococcus aureus, ATCC25923, MSSA, NCCLS reference strain; Staphylococcus aureus, ATCC29737, MSSA; Staphylococcus aureus, E33235, MSSA; Staphylococcus aureus, 698-01, MRSA ST5, Str, Kan, Oxa; Staphylococcus aureus, 566-03, MRSA ST80, Oxa, Tet, Fus, Kan.
The staphylococci were exposed to the following peptide concentrations: 32; 16; 8; 4; 2; 1; 0.5; 0.25; 0.13; […]; and 0.03 microgram/mL. All peptides were purified, HPLC quantified and the concentrated peptides (>160 micrograms/mL) were diluted to 160 micrograms/mL in peptide dilution buffer (0.1% BSA, 0.01% Acetic Acid).
The MIC determination was done essentially as described by NCCLS/CLSI guidelines using caMHB. The MICs were read after 18-24 hours of 37° C. incubations and recorded along with the CFU in the table below.
A total number of 95 antimicrobial peptides of the invention were evaluated in duplicate against the 6 bacterial strains described above.
In the majority of the double determinations (93%), the MIC varied <2 fold. An average MIC is tabulated below. If the MIC was above 32 micrograms/mL, a value of 64 was used to calculate the average.

[2] = test system: Staphylococcus carnosus ATCC51365; test: Yeast screening assay: radial diffusion assay of yeast supernatants; set-up: key: An activity of 3 is better than Plectasin; An activity of 2 corresponds to the activity of Plectasin; 1 is worse than Plectasin; settings: yeast supernatant, clearing zone in radial diffusion assay
Method in brief: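 Supernatants from S. cerevisiae expressing plectasin variants, grown 3 days at 30 °C in galactose medium, were applied to agarose containing 5×10^5 cfu/mL S. carnosus. Plates were incubated 3 h at 37 °C, overlaid, left overnight and MTT-stained. Clearing zones were scored as 2 = plectasin-like, 3 = better, 1 = worse.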

[3] = test system: Staphylococcus aureus, MRSA ST5 (2001); test: MIC, NCCLS/CLSI guidelines (Example 5), strain D; settings: relative to wildtype Plectasin; average of two independent experiments
Method: (§1) Plectasin wild-type (SEQ ID NO: 1) and several variants of Plectasin were expressed and purified. The Minimal Inhibitory Concentration (MIC) was determined to test for their antimicrobial activity following the NCCLS guidelines from CLSI (Clinical and Laboratory Standards Institute; formerly known as National Committee for Clinical and Laboratory Standards).
(§2) The peptides were tested against the following strains: • A: Staphylococcus aureus, ATCC 29213; • B: Staphylococcus aureus, ATCC 25923; • C: Staphylococcus aureus, ATCC 29737; • D: Staphylococcus aureus, MRSA ST5 (2001), multi-resistant clinical human isolate from Statens Serum Institut, Denmark; • E: Staphylococcus aureus, MRSA ST80 (2003), multi-resistant clinical human isolate from Statens Serum Institut, Denmark.
(§3) All MIC values represent an average of two independent experiments; and all results in Table 5 are expressed relative to wildtype Plectasin:
(§4) 0: >100% of Plectasin wildtype MIC; 1: 80-100% of Plectasin wildtype MIC; 2: 50-80% of Plectasin wildtype MIC; 3: <50% of Plectasin wildtype MIC.

[4] = test system: Staphylococcus aureus, ATCC 29737; test: MIC, NCCLS/CLSI guidelines (Example 5), strain C; settings: relative to wildtype Plectasin; average of two independent experiments
Method: as §1, §2, §3, §4

[5] = test system: Staphylococcus aureus, MRSA ST80 (2003); test: MIC, NCCLS/CLSI guidelines (Example 5), strain E; settings: relative to wildtype Plectasin; average of two independent experiments
Method: as §1, §2, §3, §4

[6] = test system: Staphylococcus aureus, ATCC 29213; test: MIC, NCCLS/CLSI guidelines (Example 5), strain A; settings: relative to wildtype Plectasin; average of two independent experiments
Method: as §1, §2, §3, §4

[7] = test system: Staphylococcus aureus, ATCC 25923; test: MIC, NCCLS/CLSI guidelines (Example 5), strain B; settings: relative to wildtype Plectasin; average of two independent experiments
Method: as §1, §2, §3, §4

Row | Substance | Average MIC [1] | Activity (antimicrobial activity relative to the activity of plectasin) [2] | Relative MIC, strain D [3] | Relative MIC, strain C [4] | Relative MIC, strain E [5] | Relative MIC, strain A [6] | Relative MIC, strain B [7]
1 | GFGCNGPWDEDDTQCHNHCKSIKGYKGGYCAKGGFVCKCY [Mutation M13T] | 26 micrograms/mL | 2 | – | – | – | – | –
2 | GFGCNGPWDEDDMQCHNHCKSIKGYKGGYCNKGGFVCKCY [Mutation A31N] | 9 micrograms/mL | 3 | – | – | – | – | –
3 | N5S + M13W + N17R: variant of Plectasin (SEQ ID NO: 1) (GFGCSGPWDEDDWQCHRHCKSIKGYKGGYCAKGGFVCKCY) | 2 micrograms/mL | – | 3 (<50% of Plectasin wildtype MIC) | 3 (<50% of Plectasin wildtype MIC) | 3 (<50% of Plectasin wildtype MIC) | 3 (<50% of Plectasin wildtype MIC) | –
4 | GFGCNGPWVEDDMQCHNHCKSIKGYKGGYCAKGGFVCKCY [Mutation D9V] | 30 micrograms/mL | 3 | – | – | – | – | –
5 | GFGCSGPWDEDDMRCHSHCKSIRGYKGGYCAKGGFVCKCY [N5S + Q14R + N17S + K23R] | 8 micrograms/mL | 3 | 3 (<50% of Plectasin wildtype MIC) | 3 (<50% of Plectasin wildtype MIC) | – | 1 (80-100% of Plectasin wildtype MIC) | 3 (<50% of Plectasin wildtype MIC)
6 | N5R + M13V: variant of Plectasin (SEQ ID NO: 1) (GFGCRGPWDEDDVQCHNHCKSIKGYKGGYCAKGGFVCKCY) | 5 micrograms/mL | – | 2 (50-80% of Plectasin wildtype MIC) | 3 (<50% of Plectasin wildtype MIC) | 3 (<50% of Plectasin wildtype MIC) | 3 (<50% of Plectasin wildtype MIC) | –
7 | M13V + N17T: variant of Plectasin (SEQ ID NO: 1) (GFGCNGPWDEDDVQCHTHCKSIKGYKGGYCAKGGFVCKCY) | 3 micrograms/mL | – | 3 (<50% of Plectasin wildtype MIC) | 3 (<50% of Plectasin wildtype MIC) | 3 (<50% of Plectasin wildtype MIC) | – | 3 (<50% of Plectasin wildtype MIC)
8 | M13L + Q14K + K26R: variant of Plectasin (SEQ ID NO: 1) (GFGCNGPWDEDDLKCHNHCKSIKGYRGGYCAKGGFVCKCY) | 9 micrograms/mL | – | 3 (<50% of Plectasin wildtype MIC) | 3 (<50% of Plectasin wildtype MIC) | – | 3 (<50% of Plectasin wildtype MIC) | –
9 | GFGCNGPWDEDDMSCHNHCKSIKGYKGGYCAKGGFVCKCY [Mutation Q14S] | 21 micrograms/mL | 3 | – | – | – | – | –
10 | GFGCNGPWDEDDMVCHNHCKSIKGYRGGYCAKGGFVCKCY [Q14V + K26R] | 12 micrograms/mL | 3 | – | – | – | – | –
11 | GFGCNGPWKEDDMQCHNHCKSIKGYKGGYCAKGGFVCKCY [Mutation D9K] | 7 micrograms/mL | 3 | – | – | – | – | –
12 | GFGCNGPWDEDDMFCHNHCKSIKGYKGGYCAKGGFVCKCY [Mutation Q14F] | 5 micrograms/mL | 3 | 2 (50-80% of Plectasin wildtype MIC) | 3 (<50% of Plectasin wildtype MIC) | 3 (<50% of Plectasin wildtype MIC) | 1 (80-100% of Plectasin wildtype MIC) | –
13 | GFGCGGPWDEDDMQCHNHCKSIKGYKGGYCAKGGFVCKCY [Mutation N5G] | 24 micrograms/mL | 3 | – | – | – | – | –
14 | GFGCNGPWDEDDRQCHNHCKSIKGYKGGYCAKGGFVCKCY [Mutation M13R] | 9 micrograms/mL | 3 | – | – | – | – | –
15 | GFGCNGPWDEDDMGCHNHCKSIKGYKGGYCAKGGFVCKCY [Mutation Q14G] | 18 micrograms/mL | 3 | – | – | – | – | –
16 | D9S + Q14L: variant of Plectasin (SEQ ID NO: 1) (GFGCNGPWSEDDMLCHNHCKSIKGYKGGYCAKGGFVCKCY) | 3 micrograms/mL | – | 3 (<50% of Plectasin wildtype MIC) | 3 (<50% of Plectasin wildtype MIC) | 3 (<50% of Plectasin wildtype MIC) | 3 (<50% of Plectasin wildtype MIC) | –
17 | GFGCNGPWDEGDMQCHNHCKSVKGYKGGYCAKGGFVCKCY [D11G + I22V] | 17 micrograms/mL | 3 | – | – | – | – | –
18 | GFGCNGPWDEDDMQCHSHCKSIRGYKGGYCAKGGFVCKCY [N17S + K23R] | 14 micrograms/mL | 2 | – | – | – | – | –
19 | GFGCNGPWSEDDMQCHNHCKSIKGYKGGYCAKGGFVCKCY [Mutation D9S] | 7 micrograms/mL | 3 | 2 (50-80% of Plectasin wildtype MIC) | 3 (<50% of Plectasin wildtype MIC) | – | 2 (50-80% of Plectasin wildtype MIC) | 3 (<50% of Plectasin wildtype MIC)
20 | GFGCNGPWDEDDMQCHNHCKSIKGYKGGYCAKGGFLCKCY [Mutation V36L] | 26 micrograms/mL | 3 | – | – | – | – | –
21 | GFGCNGPWDEDDSQCHNHCKSIKGYKGGYCAKGGFVCKCY [Mutation M13S] | 24 micrograms/mL | 3 | – | – | – | – | –
22 | GFGCSGPWDEDDMQCHNHCKSIKGYKGGYCAKGGFVCKCY [Mutation N5S] | 24 micrograms/mL | 3 | – | – | – | – | –
23 | M13F + Q14K + K26R: variant of Plectasin (SEQ ID NO: 1) (GFGCNGPWDEDDFKCHNHCKSIKGYRGGYCAKGGFVCKCY) | 6 micrograms/mL | – | 3 (<50% of Plectasin wildtype MIC) | 3 (<50% of Plectasin wildtype MIC) | 3 (<50% of Plectasin wildtype MIC) | 3 (<50% of Plectasin wildtype MIC) | –
24 | GFGCNGPWGEDDMQCHNHCKSIKGYKGGYCAKGGFVCKCY [Mutation D9G] | 21 micrograms/mL | 3 | – | – | – | – | –
